Reference: US20260344670A1, “BIXLOZONE MIXTURES WITH PETHOXAMID” (FMC CORPORATION, priority 2022, published 2026)

Columns and labels:
Assay type in all cases: in vivo
[1] = tested on: Persicaria maculosa (POLPE); test: pre-emergence control of POLPE in corn (efficacy, Colby synergy)
Description: (§1) [formula] • where ppm=milligrams of active ingredient (=a.i.) per liter of spray mixture X=% action by component A using p ppm of active ingredient Y=% action by component B using q ppm of active ingredient. If the ratio R defined as the action actually observed (O) divided by the expected action (E) is >1 then the action of the combination is superadditive, i.e. there is a synergistic effect. For a more detailed description of the Colby formula, see Colby, S. R. “Calculating Synergistic and Antagonistic Responses of Herbicide Combination”, Weeds, Vol. 15, pages 20-22; 1967; see also Limpel et al., Proc. NEWCC 16:48-53 (1962).
(§2) As used herein, rating timings correspond to the following: A1=weed assessment at BBCH 11-12; A2=4 weeks after the application; A3=when ZEAMX crop reaches BBCH 18 (row closure); and A4=BBCH 51-59 of the ZEAMX crop.
(§3) The herbicidal compounds bixlozone and pethoxamid were applied in a variety of forms and at a variety of amounts, application rates, and normalities. Efficacy of the herbicidal compositions was evaluated with reference to a scale of 0% to 100% in comparison with untreated control plots. 0 means no damage to the harmful plants and 100 means complete destruction of the harmful plants. Plants per square meter is indicated by “pl/m^2”, and grams per hectare is indicated by “g/ha”. The acronym “EC” means emulsifiable concentrate (a liquid, homogenous formulation to be applied as an emulsion after dilution with water); “SC” means suspension concentrate (a stable suspension of active ingredient(s) with water as the fluid); “ZC” refers to a mixed formulation of CS and SC (a stable suspension of capsules and active ingredient(s) in a fluid, normally intended for dilution with water before use).
(§4) Various forms, compositions, and mixtures of bixlozone and pethoxamid were applied to corn before emergence. […] There was equivalent efficacy for fixed rate of bixlozone combined with pethoxamid: 1200 or 900 g/ha. Efficacy was reduced when bixlozone rate decreased from 250 to 150 g/ha. […]

[2] = tested on: Convolvulus arvensis (CONAR); test: pre-emergence control of CONAR in corn (efficacy, Colby synergy); details: bixlozone 375, pethoxamid 300, mixtures 375 + 300 g/ha
Description: as §1, §2
(§5) The herbicidal compounds bixlozone and pethoxamid were applied in a variety of forms and at a variety of amounts, application rates, and normalities. Efficacy of the herbicidal compositions was evaluated with reference to a scale of 0% to 100% in comparison with untreated control plots. 0 means no damage to the harmful plants and 100 means complete destruction of the harmful plants. Plants per square meter is indicated by “pl/m^2”, and grams per hectare is indicated by “g/ha”. […]

GALAP = test: pre-emergence control of GALAP in corn (efficacy, Colby synergy)
Description: (§6) Table 10. Synergy data of various forms and mixtures of bixlozone and pethoxamid after pre-emergence application on corn at the crop row closure stage (BBCH 18). […] The notations in parentheses show the forms and amounts (in g/ha) of applied bixlozone and pethoxamid, respectively. Where “tank” is noted, the mix is a tank mix. Where “premix” is noted, the mix is a premix. Where there is no notation, the value shown is the Colby calculation for the expected value from separate mixtures.
(§7) Various forms, compositions, and mixtures of bixlozone and pethoxamid were applied to corn before emergence. […] Mixtures of bixlozone with 800 g/ha pethoxamid improved weed spectrum on a range of broad leaf weeds (e.g., CHEAL and ABUTH) and grasses (e.g., ECHCG, DIGSA, and SETVI). Combinations of bixlozone and pethoxamid in pre-emergence applications were very safe with no clear pethoxamid rate effect.
(§8) Table 12. Efficacies of various forms and mixtures of bixlozone and pethoxamid after pre-emergence application on corn. Weeds were present at ≥5 pl/m^2. Concentrations are shown in parentheses in g/ha.
Various forms, compositions, and mixtures of bixlozone and pethoxamid were applied to corn before emergence. […]

Lamium purpureum (LAMPU) = test: pre-emergence control of LAMPU in corn (efficacy, Colby synergy); details: bixlozone 375, pethoxamid 300, mixtures 375 + 300 g/ha
Description: as §1, §2, §5

[3] = tested on: Fallopia convolvulus (POLCO); test: pre-emergence control of POLCO in corn (efficacy, Colby synergy)
Description: as §1, §2, §5

[4] = tested on: Matricaria chamomilla (MATCH); test: pre-emergence control of MATCH in corn (efficacy, Colby synergy)
Description: as §1, §2, §3, §4

POAAN = test: pre-emergence control of POAAN in corn (efficacy, Colby synergy); details: bixlozone 375, pethoxamid 300, mixtures 375 + 300 g/ha
Description: (§9) Table 11. Synergy data of various forms and mixtures of bixlozone and pethoxamid after pre-emergence application on corn at the crop row closure stage (BBCH 18). The notations in parentheses show the forms and amounts (in g/ha) of applied bixlozone and pethoxamid, respectively. Where “tank” is noted, the mix is a tank mix. Where “premix” is noted, the mix is a premix. Where there is no notation, the value shown is the Colby calculation for the expected value from separate mixtures.
as §7, with “300” for “800”, “SOLNI” for “CHEAL”, “ABUTH).” for “ABUTH) and grasses (e.g., ECHCG, DIGSA, and SETVI).”
(§10) Table 13. Efficacies of various forms and mixtures of bixlozone and pethoxamid after pre-emergence application on corn. Weeds were present at ≥5 pl/m^2. Concentrations are shown in parentheses in g/ha.
Various forms, compositions, and mixtures of bixlozone and pethoxamid were applied to corn before emergence. […] There was equivalent efficacy for fixed rate of bixlozone combined with pethoxamid: 1200 or 900 g/ha. Efficacy was reduced when bixlozone rate decreased from 250 to 150 g/ha.
Table 14. […]

ANGAR = test: pre-emergence control of ANGAR in corn (efficacy, Colby synergy); details: bixlozone 375, pethoxamid 800, tank mix 375 + 800, premix 375 + 775 g/ha
Description: as §6, §7, §8

[5] = tested on: Chenopodium album (CHEAL); test: pre-emergence control of CHEAL in corn (efficacy, Colby synergy)
Description: as §1, §2, §3, §4

[6] = tested on: Capsella bursa-pastoris (CAPBP); test: pre-emergence control of CAPBP in corn (efficacy, Colby synergy); details: bixlozone 375, pethoxamid 800, tank mix 375 + 800, premix 375 + 775 g/ha
Description: as §1, §2, §5

Stellaria media (STEME) = test: pre-emergence control of STEME in corn (efficacy, Colby synergy); details: bixlozone 375, pethoxamid 800, tank mix 375 + 800, premix 375 + 775 g/ha
Description: as §1, §2, §5

[7] = tested on: Acalypha virginica (ACCVI); test: pre-emergence control of ACCVI in corn (Colby synergy)
Description: as §1, §5

[8] = tested on: Xanthium strumarium (XANST); test: pre-emergence control of XANST in corn (efficacy, Colby synergy); details: bixlozone 375, pethoxamid 300, mixtures 375 + 300 g/ha
Description: as §1, §2, §5

Setaria viridis (SETVI) = test: pre-emergence control of SETVI in corn (efficacy, Colby synergy)
Description: as §1, §2, §3, §4

[9] = tested on: Tripleurospermum inodorum (MATIN); test: pre-emergence control of MATIN in corn (Colby synergy)
Description: as §1, §5

[10] = tested on: Chenopodium hybridum (CHEHY); test: pre-emergence control of CHEHY in corn (efficacy, Colby synergy); details: bixlozone 375, pethoxamid 300, mixtures 375 + 300 g/ha
Description: as §1, §2, §5

[11] = tested on: Polygonum aviculare (POLAV); test: pre-emergence control of POLAV in corn (Colby synergy); details: bixlozone 375, pethoxamid 1200, mixtures 375 + 1200 g/ha
Description: as §1, §5

FUMOF = test: pre-emergence control of FUMOF in corn (efficacy, Colby synergy); details: bixlozone 375, pethoxamid 800, tank mix 375 + 800, premix 375 + 775 g/ha
Description: as §6, §7, §8

[12] = tested on: Potentilla tridentate (PTLTR); test: pre-emergence control of PTLTR in corn (Colby synergy); details: bixlozone 375, pethoxamid 1200, mixtures 375 + 1200 g/ha
Description: as §1, §5

DAUCA = test: pre-emergence control of DAUCA in corn (efficacy, Colby synergy); details: bixlozone 375, pethoxamid 300, mixtures 375 + 300 g/ha
Description: as §9
as §7, with “300” for “800”, “SOLNI” for “CHEAL”, “ABUTH).” for “ABUTH) and grasses (e.g., ECHCG, DIGSA, and SETVI).”
as §10

CAGSE = test: pre-emergence control of CAGSE in corn (efficacy, Colby synergy); details: bixlozone 375, pethoxamid 300, mixtures 375 + 300 g/ha
Description: as §7, with “1200” for “800”, “CHEAL, MATSS,” for “CHEAL”, “POLSS)” for “ABUTH)”
Table 8. Efficacies of various forms and mixtures of bixlozone and pethoxamid after pre-emergence application on corn. Weeds were present at ≥5 pl/m^2. Concentrations are shown in parentheses in g/ha.
as §9
Various forms, compositions, and mixtures of bixlozone and pethoxamid were applied to corn before emergence. […] Mixtures of bixlozone with 300 g/ha pethoxamid improved weed spectrum on a range of broad leaf weeds (e.g., SOLNI and ABUTH). […]

[13] = bixlozone 375, pethoxamid 300, mixtures 375 + 300 g/ha
[14] = bixlozone 375, pethoxamid 800, tank mix 375 + 800, premix 375 + 775 g/ha
[15] = bixlozone 375, pethoxamid 1200, mixtures 375 + 1200 g/ha

`CCOCCN(C(=O)CCl)C(=C(C)C)c1ccccc1` [pethoxamid] showed an Efficacy [1, 13] of 45.5, an Efficacy [1, 14] of 61.8 and an Efficacy [1, 15] of 62.5. For the same compound, the Efficacy [2] was 39.6, the Efficacy (GALAP; [13]) was 7.5 and the Efficacy (GALAP; [14]) was 7.5. For the same compound, the Efficacy (Lamium purpureum (LAMPU)) was 62.5, the Efficacy [3, 14] was 1.3 and the Efficacy [3, 15] was 12.1. It also gave an Efficacy [4, 13] of 90, an Efficacy [4, 14] of 100 and an Efficacy [4, 15] of 77.5. For the same compound, the Efficacy (POAAN) was 7.5, the Efficacy (ANGAR) was 100 and the Efficacy [5, 13] was 35.7. For the same compound, the Efficacy [5, 14] was 66.6, the Efficacy [5, 15] was 72.2 and the Efficacy [6] was 99.3. The Efficacy (Stellaria media (STEME)) was 91, the Efficacy [7, 13] was 65 and the Efficacy [7, 15] was 46.3. The Efficacy [8] was 35, the Efficacy (Setaria viridis (SETVI); [13]) was 30 and the Efficacy (Setaria viridis (SETVI); [14]) was 81. For the same compound, the Efficacy (Setaria viridis (SETVI); [15]) was 52.1, the Efficacy [9, 13] was 50 and the Efficacy [9, 15] was 100. For the same compound, the Efficacy [10] was 0, the Efficacy [11] was 77.5 and the Efficacy (FUMOF) was 12.5. The Efficacy [12] was 0, the Efficacy (DAUCA) was 83 and the Efficacy (CAGSE) was 10.
